Structures are written as SMILES. pIC50: −log10 of the molar value.

For one assay, the target named is T1, FGFR1 active kinase (Homo sapiens, UniProt P11362). Nature of the assay: FGFR Kinase assay - Caliper. Note: 408 µM ATP. The class given is biochemical. Particulars: FGFR1 […], 408 uM ATP; mean of n as printed; read-out: FGFR Kinase assay - Caliper, IC50. The method, then: FGFR Kinase Assay—Caliper
T1 sequence (P11362 22-822): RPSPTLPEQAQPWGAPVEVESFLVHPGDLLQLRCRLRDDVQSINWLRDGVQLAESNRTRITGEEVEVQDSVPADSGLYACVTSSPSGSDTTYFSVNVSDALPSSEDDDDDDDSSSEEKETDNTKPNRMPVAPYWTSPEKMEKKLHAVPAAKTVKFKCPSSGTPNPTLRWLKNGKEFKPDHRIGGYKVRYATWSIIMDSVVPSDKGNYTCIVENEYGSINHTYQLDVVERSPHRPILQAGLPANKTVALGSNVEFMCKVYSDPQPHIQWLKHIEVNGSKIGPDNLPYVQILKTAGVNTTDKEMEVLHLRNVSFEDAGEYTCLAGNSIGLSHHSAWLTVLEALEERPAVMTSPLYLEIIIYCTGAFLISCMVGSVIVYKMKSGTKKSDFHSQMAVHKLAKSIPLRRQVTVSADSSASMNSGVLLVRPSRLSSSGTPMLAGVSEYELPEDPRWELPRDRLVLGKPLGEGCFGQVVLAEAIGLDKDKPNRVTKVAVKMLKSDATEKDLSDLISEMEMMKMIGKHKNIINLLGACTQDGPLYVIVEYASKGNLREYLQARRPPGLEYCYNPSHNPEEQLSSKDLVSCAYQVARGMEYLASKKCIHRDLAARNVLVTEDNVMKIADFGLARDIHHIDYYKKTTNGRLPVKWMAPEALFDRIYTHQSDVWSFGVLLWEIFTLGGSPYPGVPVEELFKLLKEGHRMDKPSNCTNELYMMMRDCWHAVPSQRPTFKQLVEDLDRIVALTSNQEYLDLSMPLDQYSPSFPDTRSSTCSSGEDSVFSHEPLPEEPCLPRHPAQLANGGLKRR
(§1) To determine inhibition of FGFR activity, kinase assays were conducted using Caliper technology.
(§2) Kinase activity assays were performed in Greiner 384-well low volume plates, with a total reaction volume of 12 ul per well. Final concentration of FGFR1 active kinase in each reaction well was 7.2 nM. The substrate for each assay was a custom peptide with fluorescent tag (13 amino acids in length, […] with the fluorescene tag on the first K).
Compounds were serially diluted in 5% (v/v) DMSO, before being added to assay plates. The Enzyme (at 7.2 nM [final]) and Substrate (at 3.6 uM [final]) were added separately to the compound plates, in reaction buffer [comprising: 50 mM MOPS (Sigma, Catalogue No. M1254)—pH 6.5, 0.004% Triton (Sigma, Catalogue No. X-100), 2.4 mM DTT, 12 mM MgCl2, 408 uM ATP] resulting in a final DMSO concentration in the reaction mix of 0.8%.
(§3) Assay plates were incubated at room temperature for 1.5 h, before the reaction was stopped with the addition of buffer [comprising: 100 mM HEPES—pH7.5, 0.033% Brij-35 (Sigma Catalogue No. B4184), 0.22% Caliper Coating Reagent #3 (Caliper Life Sciences Catalogue No. 760050), 88 mM EDTA, 5% DMSO]. Stopped assay plates were then read using the Caliper LabChip® LC3000 (which uses microfludics to measure a shift in mobility between fluorescent labelled peptide and the FGFR1 kinase—phosphorylated form of this peptide).
In the assay, compounds were tested at a range of concentrations.
Percentage inhibition at 1 uM, as expressed herein, is a calculated value based on the curve fit that was generated experimentally. From the fitted curve plot, the effect of compound at a concentration of 1 uM was calculated as a percentage inhibition. The IC50 is the concentration of compound, which inhibits FGFR1 kinase activity by 50% in the context of this assay.
As a reminder, the pIC50 is −log10 of the IC50, conventionally taken in molar units. `CN(C)Cc1ccc(CCc2cc(NC(=O)c3ccc(N4CCN(C)CC4)cc3)n[nH]2)o1` [Example 76, N-[5-[2-[5-(Dimethylaminomethyl)-2-furyl]ethyl]-1H-pyrazol-3-yl]-4-(4-methylpiperazin-1-yl)benzamide]: the pIC50 is 6.47. Consider `CN1CCN(c2ccc(C(=O)Nc3cc(CCc4ccc5c(c4)OCO5)n[nH]3)cc2)CC1` [Example 77, N-[5-(2-Benzo[1,3]dioxol-5-ylethyl)-2H-pyrazol-3-yl]-4-(4-methylpiperazin-1-yl)benzamide], for which the pIC50 was 6.85. Same read-out and setting: the figure for `COc1ccc(OC)c(CCc2cc(NC(=O)c3ccc(N4CCN(C)CC4)cc3)[nH]n2)c1` [Example 78, N-[5-[2-(2,5-Dimethoxyphenyl)ethyl]-2H-pyrazol-3-yl]-4-(4-methylpiperazin-1-yl)benzamide] is 6.33. The same measure, in the same setting: the figure for `COc1ccc(CCc2cc(NC(=O)c3ccc(N4CCN(C)CC4)cc3)[nH]n2)c(C)c1` [Example 79, N-[5-[2-(4-Methoxy-2-methyl-phenyl)ethyl]-2H-pyrazol-3-yl]-4-(4-methylpiperazin-1-yl)benzamide] is 6.70. As for `COc1cc(CCc2cc(NC(=O)c3ccc(N4CCN(C)C(C)C4)cc3)n[nH]2)cc(OC)c1` (centres unmarked) [Example 81, N-[5-[2-(3,5-Dimethoxyphenyl)ethyl]-1H-pyrazol-3-yl]-4-(3,4-dimethylpiperazin-1-yl)benzamide], the negative logarithm of the IC50 (pIC50) was 7.40.

For the molecule `COc1cc(CCc2cc(NC(=O)c3ccccc3NCc3cc(C)no3)n[nH]2)cc(OC)c1` [Example 83, N-[5-[2-(3,5-Dimethoxyphenyl)ethyl]-1H-pyrazol-3-yl]-2-[(3-methyl-1,2-oxazol-5-yl)methylamino]benzamide], the pIC50 was 6.00. The same measure, in the same setting: the result for `COc1cc(CCc2cc(NC(=O)c3ccc(N4CCN(C)CC4)nn3)[nH]n2)cc(OC)c1` [Example 84, N-[5-[2-(3,5-Dimethoxyphenyl)ethyl]-2H-pyrazol-3-yl]-6-(4-methylpiperazin-1-yl)pyridazine-3-carboxamide] reads 6.41; that for `COc1cc(CCc2cc(NC(=O)c3ccc(C(=O)N4CCN(C)CC4)cc3)n[nH]2)cc(OC)c1` [Example 86, N-[5-[2-(3,5-Dimethoxyphenyl)ethyl]-1H-pyrazol-3-yl]-4-(4-methylpiperazine-1-carbonyl)benzamide], 7.02; that for `COc1cc(CCc2cc(NC(=O)c3ccc(N4CCN(C(C)C)CC4)cc3)n[nH]2)cc(OC)c1` [Example 87, N-[5-[2-(3,5-Dimethoxyphenyl)ethyl]-1H-pyrazol-3-yl]-4-(4-propan-2-ylpiperazin-1-yl)benzamide], 9.40. Consider `COc1cc(CCc2cc(NC(=O)c3ccc(N4CCN(C5CCC5)CC4)cc3)n[nH]2)cc(OC)c1` [Example 89, 4-(4-Cyclobutylpiperazin-1-yl)-N-[5-[2-(3,5-dimethoxyphenyl)ethyl]-1H-pyrazol-3-yl]benzamide], for which the negative-log IC50 (pIC50) is 8.05. As to `COc1cc(CCc2cc(NC(=O)c3ccc(N4CCN(C(C)=O)CC4)cc3)n[nH]2)cc(OC)c1` [Example 90, 4-(4-Acetylpiperazin-1-yl)-N-[5-[2-(3,5-dimethoxyphenyl)ethyl]-1H-pyrazol-3-yl]benzamide], the pIC50 is 7.25.

On to `COc1cccc(CCc2cc(NC(=O)c3ccc(N4CCN(S(C)(=O)=O)CC4)cc3)n[nH]2)c1` [Example 91, N-[5-[2-(3-Methoxyphenyl)ethyl]-1H-pyrazol-3-yl]-4-(4-methylsulfonylpiperazin-1-yl)benzamide], for which the negative-log IC50 (pIC50) was 6.60. On the same count and under the same terms, the result for `COc1cc(CCc2cc(NC(=O)c3ccc(C4CCN(C)CC4)cc3)n[nH]2)cc(OC)c1` [Example 92, N-[5-[2-(3,5-Dimethoxyphenyl)ethyl]-1H-pyrazol-3-yl]-4-(1-methyl-4-piperidyl)benzamide] reads 8.10; that for `COc1cc(CCc2cc(NC(=O)c3ccc(N4CCN5CCCC5C4)cc3)[nH]n2)cc(OC)c1` (centres unmarked) [Example 93, 4-(3,4,6,7,8,8a-Hexahydro-1H-pyrrolo[2,1-c]pyrazin-2-yl)-N-[5-[2-(3,5-dimethoxyphenyl)ethyl]-2H-pyrazol-3-yl]benzamide], 7.43; that for `COc1cc(CCc2cc(NC(=O)c3ccc(N4CCN5CCCCC5C4)cc3)[nH]n2)cc(OC)c1` (centres unmarked) [Example 94, 4-(1,3,4,6,7,8,9,9a-Octahydropyrido[2,1-c]pyrazin-2-yl)-N-[5-[2-(3,5-dimethoxyphenyl)ethyl]-2H-pyrazol-3-yl]benzamide], 7.09. Take `COc1cc(CCc2cc(NC(=O)c3ccc(CN4CCN(C)CC4)cc3)n[nH]2)cc(OC)c1` [Example 95, N-[5-[2-(3,5-Dimethoxyphenyl)ethyl]-1H-pyrazol-3-yl]-4-[(4-methylpiperazin-1-yl)methyl]benzamide]: the negative-log IC50 (pIC50) was 6.85.

A further assay concerns the target T1, FGFR1 active kinase. Nature of the assay: FGFR Kinase assay - Caliper Echo Dosing. The format is biochemical. Particulars: FGFR1 7.2 nM, 408 uM ATP, acoustic dosing; geometric mean of n. The method, then: FGFR Kinase Assay—Caliper Echo Dosing
as §1, §2
Compounds were dispensed directly in to assay plates using a Labcyte Echo 550 acoustic droplet ejection unit. Each well received 120 nl of DMSO containing compound such that the final concentration of compound in the assay prior to the addition of the stop solution ranged between 30 uM and 30 pM. In addition to compounds each plate carried maximum and minimum control wells, the max wells contained 120 nl of DMSO and the min wells contained 120 nl of 10 mM staurosporine (LC Laboratories, MA 01801, USA Catalogue No. S-9300). The Enzyme (at 7.2 nM [final]) and Substrate (at 3.6 uM [final]) were added separately to the compound plates, in reaction buffer [comprising: 50 mM MOPS (Sigma, Catalogue No. M1254)—pH 6.5, 0.004% Triton (Sigma, Catalogue No. X-100), 2.4 mM DTT, 12 mM MgCl2, 408 uM ATP] resulting in a final DMSO concentration in the reaction mix of 1%.
as §3
In the assay, compounds were tested at a range of concentrations. […] Percentage inhibition at 1 uM, as expressed herein, is a calculated value based on the curve fit that was generated experimentally. From the fitted curve plot, the effect of compound at a concentration of 1 uM was calculated as a percentage inhibition. The IC50 is the concentration of compound, which inhibits FGFR1 kinase activity by 50% in the context of this assay. This value is calculated using a standard curve fitting software package Origin™.
For `COc1cc(COc2cc(NC(=O)c3cnc(Cl)cn3)[nH]n2)cc(OC)c1` [5-Chloro-N-[5-[(3,5-dimethoxyphenyl)methoxy]-2H-pyrazol-3-yl]pyrazine-2-carboxamide], the pIC50 is 7.22. `COc1cc(CCc2cc(NC(=O)c3ccc(CN(C)CC4CCCO4)cc3)n[nH]2)cc(OC)c1` (centres unmarked) [Example 57, N-[5-[2-(3,5-Dimethoxyphenyl)ethyl]-1H-pyrazol-3-yl]-4-[(methyl-(oxolan-2-ylmethyl)amino)methyl]benzamide] had a pIC50 of 8.28.

With `COc1cc(CCc2cc(NC(=O)c3ccc(I)cc3)[nH]n2)cc(OC)c1` [Example 82, N-[5-[2-(3,5-Dimethoxyphenyl)ethyl]-2H-pyrazol-3-yl]-4-iodo-benzamide], the pIC50 was 7.68.

Turning to `COc1cc(CCc2cc(NC(=O)c3ccc(N4CC(C)N(C)C(C)C4)cc3)n[nH]2)cc(OC)c1` (centres unmarked) [Example 96, N-[5-[2-(3,5-Dimethoxyphenyl)ethyl]-1H-pyrazol-3-yl]-4-(3,4,5-trimethylpiperazin-1-yl)benzamide], the pIC50 is 9.27. `COc1cc(COc2cc(NC(=O)c3ccc(N4CCN(C)C(C)C4)s3)[nH]n2)cc(OC)c1` (centres unmarked) [Example 97, N-[5-[(3,5-dimethoxyphenyl)methoxy]-2H-pyrazol-3-yl]-5-(3,4-dimethylpiperazin-1-yl)thiophene-2-carboxamide] gave a negative-log IC50 (pIC50) of 9.34.

For the molecule `COc1cc(COc2cc(NC(=O)c3ccc(N4CCN5CCCCC5C4)cc3)[nH]n2)cc(OC)c1` (centres unmarked) [Example 98, 4-(1,3,4,6,7,8,9,9a-octahydropyrido[2,1-c]pyrazin-2-yl)-N-[5-[(3,5-dimethoxyphenyl)methoxy]-2H-pyrazol-3-yl]benzamide], the pIC50 is 8.52. The molecule `COc1cc(CCc2cc(NC(=O)c3ccc(C4CCN(C5CC5)CC4)cc3)[nH]n2)cc(OC)c1` [Example 99, 4-(1-Cyclopropylpiperidin-4-yl)-N-[5-[2-(3,5-dimethoxyphenyl)ethyl]-2H-pyrazol-3-yl]benzamide] gave a pIC50 of 9.04. Still for that read-out and setting: the result for `COc1cc(COc2cc(NC(=O)c3ccc(N4C[C@@H](C)N[C@@H](C)C4)cc3)[nH]n2)cc(OC)c1` [Example 100, N-[5-[(3,5-dimethoxyphenyl)methoxy]-2H-pyrazol-3-yl]-4-[(3R,5S)-3,5-dimethylpiperazin-1-yl]benzamide] reads 8.85; that for `COc1cc(COc2cc(NC(=O)c3ccc(N4CCN(C)C(C)C4)cc3)[nH]n2)cc(OC)c1` (centres unmarked) [Example 101, N-[5-[(3,5-dimethoxyphenyl)methoxy]-2H-pyrazol-3-yl]-4-(3,4-dimethylpiperazin-1-yl)benzamide], 7.68; that for `COc1cc(CCc2cc(NC(=O)c3ccc(N4CCN(C(=O)OC(C)(C)C)CC4)s3)[nH]n2)cc(OC)c1` [Example 102, tert-Butyl 4-[5-[[5-[2-(3,5-dimethoxyphenyl)ethyl]-2H-pyrazol-3-yl]carbamoyl]thiophen-2-yl]piperazine-1-carboxylate], 7.55.

Source of the values: patent US10301267B2, “Compounds” (AstraZeneca AB, priority 2006, dated 2019).
